The values below come from ChEMBL document CHEMBL4418261, “Pyripyropene derivatives having acat2 inhibiting activity and stable to metabolizing enzymes” (2017).

A short description of series [1]: Half life in Sprague-Dawley rat hepatic microsomes at 6 ug/ml by LC-MS method. Format: ADME, Microsome. Particulars: liver microsomes.
Series [2] concerns the target T1, Sterol O-acyltransferase 2 (Mus musculus, UniProt O88908).
T1 sequence (O88908 whole entry): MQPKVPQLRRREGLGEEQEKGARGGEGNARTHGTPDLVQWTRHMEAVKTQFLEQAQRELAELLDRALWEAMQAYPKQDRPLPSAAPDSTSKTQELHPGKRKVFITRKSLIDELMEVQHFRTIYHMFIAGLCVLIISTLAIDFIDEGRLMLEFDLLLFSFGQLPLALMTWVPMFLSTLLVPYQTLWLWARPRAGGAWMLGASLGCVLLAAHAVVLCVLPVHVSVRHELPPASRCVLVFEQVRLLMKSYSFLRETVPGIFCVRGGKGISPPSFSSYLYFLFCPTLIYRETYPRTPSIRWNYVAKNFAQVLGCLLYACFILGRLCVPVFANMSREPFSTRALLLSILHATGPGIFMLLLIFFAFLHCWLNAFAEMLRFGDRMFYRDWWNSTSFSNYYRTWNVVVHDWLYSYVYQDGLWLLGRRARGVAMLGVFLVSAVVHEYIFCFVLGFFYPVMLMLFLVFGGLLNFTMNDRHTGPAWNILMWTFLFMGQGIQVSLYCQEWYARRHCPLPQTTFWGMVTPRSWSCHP
The experiment in a line: Inhibition of ACAT2 in mouse hepatic microsome membranes using [1-14C]oleoyl coenzyme A as substrate incubated for 5 mins. Format: microsomes, Liver.

Series [3] has as its target T2, Sterol O-acyltransferase 2 (Mus musculus) (UniProt O88908).
T2 sequence (whole entry): T1 sequence (O88908 whole entry)
The experiment in a line: Potency index, ratio of PRD-043 IC50 to test compound IC50 for inhibition ACAT2 in mouse hepatic microsome membranes using [1-14C]oleoyl coenzyme A as substrate incubated for 5 mins. Format: microsomes.

In series [1], `COc1ccc(CNC(=O)[C@]2(C)[C@@H](OC(C)=O)CC[C@]3(C)[C@H]4[C@@H](O)c5c(cc(-c6cccnc6)oc5=O)O[C@]4(C)[C@@H](OC(=O)c4ccc(C#N)cc4)C[C@H]32)c(OC)c1` returned a half-life at 6 ug/ml of more than 9 h. Further, in series [2], the IC50 was less than 0.5 nM. For the same compound, in series [3], the Ratio IC50 is less than 20.

In series [1], `CC(=O)O[C@H]1CC[C@]2(C)[C@H]3[C@@H](O)c4c(cc(-c5cccnc5)oc4=O)O[C@]3(C)[C@@H](OC(=O)c3ccc(C#N)cc3)C[C@H]2[C@]1(C)C(=O)O` registered a half-life at 6 ug/ml of more than 9 h. Also, in series [2], the IC50 is less than 0.5 nM. In addition, the Ratio IC50 in series [3] was less than 20.

Compound `Cc1ccccc1[C@@H]1OC[C@@]2(C)[C@@H]3C[C@H](OC(=O)c4ccc(C#N)cc4)[C@@]4(C)Oc5cc(-c6cccnc6)oc(=O)c5[C@H](O)[C@@H]4[C@@]3(C)CC[C@@H]2O1` registered a half-life at 6 ug/ml in series [1] of more than 9 h. Besides, in series [2], the concentration for half-maximal inhibition (IC50) fell in the range of 1 to 10 nM. Besides, the Ratio IC50 in series [3] was in the range of 10 to 20.

As to `COC(=O)[C@]1(C)[C@@H](OC(C)=O)CC[C@]2(C)[C@H]3[C@@H](O)c4c(cc(-c5cccnc5)oc4=O)O[C@]3(C)[C@@H](OC(=O)c3ccc(C#N)cc3)C[C@H]21`, the half-life at 6 ug/ml in series [1] was more than 9 h. In series [2], this compound showed an IC50 of 0.5 to 1 nM. Besides, the Ratio IC50 in series [3] is 10 to 20.

For the compound `C[C@@]12CO[C@@H](c3cccc4ccccc34)O[C@H]1CC[C@@]1(C)[C@H]2C[C@H](OC(=O)c2ccc(C#N)cc2)[C@@]2(C)Oc3cc(-c4cccnc4)oc(=O)c3[C@H](O)[C@H]12`, the half-life at 6 ug/ml in series [1] was more than 9 h. Besides, the Ratio IC50 in series [3] lay in the range of 10 to 20.

`Cc1ccc([C@@H]2OC[C@@]3(C)[C@@H]4C[C@H](OC(=O)c5ccc(C#N)cc5)[C@@]5(C)Oc6cc(-c7cccnc7)oc(=O)c6[C@H](O)[C@@H]5[C@@]4(C)CC[C@@H]3O2)c(C)c1` displayed a half-life at 6 ug/ml in series [1] of more than 9 h. For the same compound, in series [3], the Ratio IC50 was 10 to 20.

In turn, `Cc1ccccc1[C@@H]1OC[C@@]2(C)[C@@H]3C[C@H](OC(=O)c4ccc(F)cc4)[C@@]4(C)Oc5cc(-c6cccnc6)oc(=O)c5[C@H](O)[C@@H]4[C@@]3(C)CC[C@@H]2O1` registered a half-life at 6 ug/ml in series [1] of more than 9 h. In addition, the Ratio IC50 in series [3] lay in the range of 10 to 20.

The term half-life denotes the time in which the quantity being followed falls by half. A high value points to slow loss. Usually IC50 stands for the midpoint of a concentration-inhibition curve. Higher therefore signals lower potency.
